According to patent US20240383906A1, “5-SUBSTITUTED PYRIDINE-2(1H)-KETONE COMPOUND AND USE THEREOF” (JIANGSU KANION PHARMACEUTICAL CO., LTD., priority 2021, published 2024):

Experiments:
[1] = test system: WNT pathway STF reporter gene; test: Super-Top-Flash (STF) reporter gene inhibitory activity test; format: cell-based; settings: HEK293 STF and L wnt3A cells 1:1, 24 hours, Bright-Glo
Procedure: HEK293 STF and L wnt3A cells were provided by Wuhan Heyan Biomedical Technology Co., Ltd., and Bright Glo was purchased from Promega.
• HEK293 STF and L wnt3A cells were seeded in a white 96-well plate at a ratio of 1:1, with 80 μL of cell suspension per well, each containing 20,000 HEK293 STF cells and 20,000 L wnt3A cells. The cell plate was placed in a carbon dioxide incubator for overnight culture.
The test compounds were 5-fold diluted with a multi-channel pipette to the 8th concentration, i.e., diluted from 400 μM to 5.12 nM, and duplicate experiment was set. 78 μL of culture medium was added to an intermediate plate, and then 2 μL of gradient diluted compound per well was transferred to the intermediate plate according to the corresponding position. After mixing well, the compound was transferred to the cell plate at 20 μL per well. The cell plate was placed in a carbon dioxide incubator and cultured for 24 hours.
100 μL of Promega Bright-Glo reagent was added to each well of the cell plate, and it was incubated at room temperature for 10 minutes to stabilize the luminescent signal. A multimode microplate reader was used for reading.
Using the raw data from the multimode microplate reader, the IC50 value could be obtained through curve fitting. Table 10 provides the data on the inhibitory activity of the compounds of the present disclosure on the Wnt signaling pathway.

[2] = test system: Capan-2 cells; test: Capan-2 cell anti-proliferative activity test; format: cell-based; settings: Homo sapiens, Capan-2, 120 h; 5 days, CellTiter-Glo
Procedure: Capan-2 cells were provided by Wuhan Heyan Biomedical Technology Co., Ltd., and CellTiter-Glo was purchased from Promega.
Capan-2 cells were seeded in a white 96-well plate, with 80 μL of cell suspension per well, each containing 5,000 Capan-2 cells. The cell plate was placed in a carbon dioxide incubator for overnight culture.
The test compounds were 3-fold diluted with a multi-channel pipette to the 9th concentration, i.e., diluted from 200 μM to 30 nM, and duplicate experiment was set. 78 μL of culture medium was added to an intermediate plate, and then 2 μL of gradient diluted compound per well was transferred to the intermediate plate according to the corresponding position. After mixing well, the compound was transferred to the cell plate at 20 μL per well. The cell plate was placed in a carbon dioxide incubator and cultured for 5 days. Another cell plate was prepared, and the signal value was read on the day of drug administration to serve as the maximum value (Max value in the equation below) for data analysis. 25 μL of cell viability chemiluminescence detection reagent was added to each well of this cell plate, and it was incubated at room temperature for 10 minutes to stabilize the luminescent signal. A multimode microplate reader was used for reading.
After the cell plate was cultured for 5 days, 25 μL of Promega CellTiter-Glo reagent was added to each well of the cell plate, and it was incubated at room temperature for 10 minutes to stabilize the luminescent signal. A multimode microplate reader was used for reading.
The IC50 value could be obtained through curve fitting, and the results of the inhibitory activity of the compounds of the present disclosure on the proliferation of Capan-2 cells are shown in Table 11.

[3] = test system: HuPrime® gastric cancer GA3055 subcutaneous xenograft model; test: In vivo drug efficacy in HuPrime gastric cancer GA3055 subcutaneous xenograft model; set-up: species or system female BALB/C nude mice; settings: BID
Excerpt: • GA3055 tumor-bearing mice were provided by Crown Bioscience (Taicang) Co., Ltd.
Tumor tissue was collected from tumor-bearing mice of the HuPrime® gastric cancer GA3055 xenograft model, and cut into tumor pieces with a diameter of 2 to 3 mm for subcutaneous inoculation in the right anterior scapular region of BALB/c nude mice. When the average tumor volume in the tumor-bearing mice reached approximately 150 mm^3, the mice were randomly grouped. The coefficient of variation (CV) of the tumor volume within each group was calculated using the formula CV=SD/MTV×100%, and should be less than 30%. Administration started on the day of grouping (the tumor volume was measured on the day of grouping). The day of grouping was defined as day 0.
Before the start of administration, all animals were weighed and the tumor volume was measured using a caliper. Given that the volume of the tumor could affect the effectiveness of the treatment, a random grouping design method was used. The mice were grouped based on the volume of their tumors to ensure similar tumor volumes across different groups. Grouping was done using StudyDirector™ (version 3.1.399.19, supplier: Studylog System, Inc., S. San Francisco, CA, USA).
The “Matched distribution” random grouping method was chosen for grouping, which could reflect the smallest intergroup differences at the tumor volume level. This algorithm matched the individual measurements of all selected animals with the average value of all selected animals. Firstly, those paired animals whose average values were close to the average value of all selected animals were chosen, and then they were allocated to groups so that the average value of the group matched (or was as close as possible to) the average value of all selected animals. The final average value of the measurements of each group was as close as possible to the final average value of the other groups.
After the inoculation of tumor cells, routine monitoring included the growth of the tumor and the impact of the treatment on the normal behavior of the animals. Specific content included the activity of the experimental animals, food and water intake, weight gain or loss, and any abnormalities in their eyes, fur, and other conditions. Any clinical symptoms observed during the experiment were recorded in the original data. After the start of administration, the weight of the mice and the size of the tumor were measured twice a week. […] The original data was directly imported into the software after being measured by a balance and caliper, and any changes in the data were recorded in this software. […]
All experimental results were expressed as the mean tumor volume±SEM (standard error of the mean). […] All data were analyzed using SPSS 18.0. […]

Cn1cc(-c2cnc(CNc3nccn4c(-c5cc(F)cc(F)c5)cnc34)cn2)ccc1=O [Compound 2]
IC50 [1]: 0.23 nM
IC50 [2]: 6.07 nM
T/C % ([3]; 5 mg/Kg, 37 days): 12.97%
TGI % ([3]; 5 mg/Kg, 37 days): 94.6%
T/C % ([3]; 10 mg/Kg): 10.89%
TGI % ([3]; 10 mg/Kg): 96.8%
